The text below walks through data of US8183048B2, “Assay for screening/ranking antioxidants based on their effects on membrane sterol lateral organization” (Temple University- Of the Commonwealth System of Higher …, priority 2007, dated 2012).

The nature of test [1]: AAPH-induced sterol oxidation, initial rate (Ri) vs sterol mol %. The test is classed as biochemical. An excerpt:
The main purpose of this assay is to determine the Cth value for the antioxidant ALA, which is both water and lipid soluble. […] Ri came from monitoring DHE fluorescence intensity after addition of AAPH. […] In this case (the right panel in the flow chart—FIG. 9), the initial rate of sterol oxidation (Ri), instead of the lag phase, is used as the parameter to reflect the potency of an antioxidant activity. […] The membrane system is: 1-palmitoyl-2-oleoyl-L-α-phosphatidylcholine (POPC)/porcine brain sphingomyelins (pSPMs)/DHE LUVs. This biphasic change is expected from the sterol superlattice theory and is consistent with our previous finding (43). […] In this case, the Cth value is determined to be >>5 mM, if there is any. Vertical bars are the standard deviations from three independently prepared samples. The experiment was carried out at 37-42° C.
The term “Ri” as used herein means the initial rate of sterol oxidation in sec^−1. Ri can be calculated as follows: Ri equals [(Normalized fluorescence intensity of DHE at time t) minus (normalized fluorescence intensity of DHE at time 0)] divided by (t−0). Initial rate of sterol oxidation is calculated from the slope of DHE fluorescence intensity decrease vs time. […] Each sample set spanning a critical mole fraction must be analyzed separately in order to get an accurate picture for that particular set of vesicles. […] One reason for these slight variations is due to the high sensitivity of fluorescence signals. Fluorescence intensity is a relative value, depending on the amount of fluorophore in the cuvette, sample mixing, temperature fluctuations, and quenching due to impurities in the sample. For this reason, each complete set is analyzed separately, but all sets are normalized so that they can be compared to each other. Each sample set is analyzed by examining the first five to ten minutes of fluorescence decay in a sequential manner. […] Within a sample set, the deviation from linearity can be determined, and the number of minutes that will be used to calculate the initial rate can be defined. […]

The nature of test [2]: AAPH-induced DHE oxidation, antioxidant-induced lag phase vs sterol mol % (sterol superlattice assay). The test is classed as biochemical. The procedure: Two-component or multi-component models of large unilamellar vesicles (LUVs) containing DHE (dehydroergosterol) are prepared as described above. The sizes of LUVs are in the range of 100-800 nm in diameter. [Please quantify the term “large”]. A prooxidant or a free radical generator is added to a fluorescence cuvette containing LUVs that have been incubated with an antioxidant. In certain embodiments, sterol oxidation was induced by a water-soluble free radical generator, AAPH (2,2′-azobis(2-amidinopropane) dihydrochloride). […] Plotting the lag phase length (τ) (or the initial rate Ri, in the case of lacking lag phase) vs sterol mole fraction in the presence of low dose antioxidant, a biphasic change in (or Ri) at a given Cr (e.g., 20.0, 22.2, 25.0, 33.3, 40.0 and 50.0 mol % sterol) is observed (see FIGS. 4, 8, and 9). This experiment will be repeated at different antioxidant doses. A threshold antioxidant concentration (Cth) is the highest antioxidant concentration at which the biphasic change in τ with sterol mol % may still be detected. The τ, Ri, and Cth values will give information about the antioxidant activity or potency and side effects. The τ and Ri values will give information about the antioxidant activity or potency. […] The ratio of the Ri value in the presence of antioxidants to that in the absence of antioxidants (Ri/Rio) also reflects the potency of the antioxidant. […] The Cth value indicates the potential toxicity of the antioxidant. The lower the Cth value is, the higher the potential damage to cell membranes becomes. The Cth values will be determined based on the capability of the antioxidant to abolish the biphasic change of either τ or Ri with membrane sterol mole fraction. All of the antioxidants, either producing τ or Ri, can be compared and ranked based on the Cth values.
Dehydroergosterol (DHE; Sigma, St. Louis, Mo.) was first purified by HPLC, and then dissolved in CHCl3 to make a stock solution. The concentration of DHE stock solution was calculated by absorbance in dioxane at 326 nm, using an extinction coefficient equal to 10,600 M^−1 cm^−1. DMPC was purchased from Avanti Polar Lipids (Alabaster, Ala.). The concentration of DMPC in stock solution and in LUVs was determined by the method of Bartlett (61). The prooxidant AAPH ((2,2′-azobis(2-amidinopropane) dihydrochloride) was obtained from Aldrich (Milwaukee, Wis.). Ascorbic acid and ascorbyl palmitate were purchased from Sigma.
Calculated amounts of DMPC and DHE were pipetted into tubes and dried under N2 until there was no visible solvent; lipids were then dried overnight under vacuum. Next, lipids were reconstituted at 37° C. with 5.0 mL of 50 mM Tris-HCl buffer at pH 7.0 (containing 0.02% NaN3 and 0.1 mM EDTA), then flushed with N2, and vortexed for 2 min at 37° C. to form multilamellar vesicles (MLVs). The MLVs were cooled to 4° C. for 30 min and then incubated at 37° C. for 30 min. This cooling/heating cycle was repeated three times to ensure an even distribution of lipids within each monolayer of the vesicles. After being exposed to three cycles of heat/cold to allow for thorough mixing, vesicles were left for 4 days at room temperature to come to thermal equilibrium. LUVs were then prepared from MLVs by extrusion (Lipex Biomembranes Inc., Vancouver, BC, Canada). The MLVs were extruded at 37° C. 10 times through two stacked 200 nm Nucleopore polycarbonate filters (Costar) under nitrogen gas pressure to form homogeneous LUVs. To avoid auto-oxidation of sterol, the LUV samples were flushed with argon, sealed, and stored in a dessicator chamber under vacuum at room temperature for seven days prior to sterol oxidation measurements (50). During this time, phosphorus concentration was measured again to determine new phospholipid concentration after loss by extrusion (53).
A typical LUV sample set spanned a predicted critical sterol mole fraction (Cr) for maximal superlattice formation. […]

Setting [3] is: sample set 23.8-26.2 mol %, Cr 25.0 mol %, FIG. 5.
[4] abbreviates: sample set 38.8-41.2 mol %, Cr 40.0 mol %, FIG. 6.

Structures are written as SMILES. Where “and” joins values, the source holds several entries; their conditions need not be identical. Identical values can stand only once. Entries after “also recorded” stand apart in the source; their conditions may differ. A value given as a limit tells only on which side of the number the result lay.

For the compound `O=C(O)CCCCC1CCSS1` (stereo not drawn) [ALA, alpha lipoic acid], the “lag phase in AAPH-induced sterol oxidation” value in test [1] (AAPH-induced DHE fluorescence decay) is “does not generate a lag phase”. Further, the “effect on initial rate of sterol oxidation (Ri)” value in test [1] (AAPH-induced DHE oxidation, increasing ALA doses) was “Ri decreases with increasing ALA doses; also recorded: dose-dependent decrease”. In addition, in test [1] (POPC/pSPMs/DHE LUVs, Cr 20.0 mol %, 37-42° C., FIG. 8), the “Cth (from biphasic change of Ri with sterol content)” value is recorded as greater than 5 mM.
Take `O=C1O[C@H]([C@@H](O)CO)C(O)=C1O` [ascorbic acid]: in test [2] (sample set 18.8-21.2 mol % DHE in DMPC, Cr 20.0 mol %, FIG. 4), the “Cth (threshold antioxidant concentration above which biphasic profile of lag phase at Cr is no longer observable)” value is no less than 30 µM. For the same compound, the “Cth (biphasic change in lag phase with sterol content abolished)” value is no less than 30 µM in test [2] (setting [3]) and no less than 120 µM in test [2] (setting [4]).
On to `CCCCCCCCCCCCCCCC(=O)OC[C@H](O)[C@H]1OC(=O)C(O)=C1O` [ascorbyl palmitate], for which the “Cth (threshold antioxidant concentration for sterol superlattice disruption)” value in test [2] (DMPC/DHE LUVs, 37° C., all three sample sets (Cr 20.0, 25.0, 40.0 mol %)) was 13 to 15 µM and 13.1 to 15.0 µM. Besides, in test [2] (same apparent dose, FIGS. 2 and 3), the “lag phase length relative to ascorbic acid” value was “much more potent; also recorded: about three”. Moreover, the “Cth (biphasic change in lag phase with sterol content abolished)” value in test [2] (setting [3]) fell in the range of 11.3 to 15.0 µM; in test [2] (setting [4]), 13.1 to 15.0 µM. Besides, the “concentration at which the biphasic profile of lag phase is obliterated” value was no less than 15.0 µM in test [2] (sample set spanning Cr 20.0 mol % DHE, FIG. 4); no less than 15.0 µM in test [2] (sample set spanning Cr 25.0 mol % DHE, FIG. 5); no less than 15.0 µM in test [2] (sample set spanning Cr 40.0 mol % DHE, FIG. 6).
